The record followed here is article doi:10.1101/2023.08.28.555062, “Discovery of 2-amide-3-methylester thiophenes that target SARS-CoV-2 Mac1 and repress coronavirus replication, validating Mac1 as an anti-viral target” (bioRxiv, 2023).

Entries after “also recorded” stand apart in the source; their conditions may differ. Read-outs that look alike come from different tables or passages of the source.

The term IC50 denotes the concentration that gives 50% inhibition. Usually ΔTm stands for the change in melting temperature against a reference sample. What is called inhibition is how much of the control response was suppressed.

Data set [1] addresses T1, SARS-CoV-2 Mac1 (Severe acute respiratory syndrome coronavirus 2, UniProt P0DTD1). Briefly: biochemical. The class given is binding. As to conditions: for drop in potency relative to 1: from IC50 values.
The target of data set [2] is T1, SARS-CoV-2 Mac1. The class given is binding. The note with it: 100 μM concentration; ± standard deviation of three replicates.
Another data set deals with T2, ALC1 (Homo sapiens, UniProt Q86WJ1).
T2 sequence (Q86WJ1 704-897 limits assumed): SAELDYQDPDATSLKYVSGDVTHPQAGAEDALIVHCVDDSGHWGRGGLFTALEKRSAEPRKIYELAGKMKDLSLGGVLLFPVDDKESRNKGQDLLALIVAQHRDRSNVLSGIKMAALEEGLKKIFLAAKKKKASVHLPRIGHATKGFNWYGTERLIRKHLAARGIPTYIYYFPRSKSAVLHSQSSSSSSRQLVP
Briefly: FRET profiling / potency against ALC1 with YFP-GAP(PAR). Format: binding. The note with it: for inhibition at 1000 µM: read-out: maximum inhibition.

The target of data set [3] is macrodomains from MERS-CoV (Middle East respiratory syndrome-related coronavirus, UniProt K9N7C7). The data set is described as follows: biochemical. The class given is binding.
The subject of a further data set is human macrodomains. The data set is described as follows: FRET profiling against panel of human macrodomains and ARH3. The class given is binding.
For a further data set, the system named is DBT cells. Briefly: MTT cell viability assay, DBT cells. The class given is cell-based, mouse. As to conditions: 24 hours. The procedure:
(§1) DBT, L929, and Calu-3 cells were treated with 27 for 24 hours. Cellular metabolic activity was assessed using a CyQUANT MTT Cell Proliferation Assay (Thermo Fisher Scientific) following manufacturer’s instructions.

The test system of a further data set is L929 cells. The data set is described as follows: MTT cell viability assay, L929 cells. The class given is cell-based, mouse. As to conditions: 24 hours. On the procedure: as §1
(In general: Tetrazolium assays rely on reduction of a dye to a coloured formazan, in cell work by metabolically active cells.)

The test system of a further data set is Calu-3 cells. Briefly: MTT cell viability assay, Calu-3 cells. As to conditions: 24 hours. The class given is cell-based, human. The procedure: as §1
In another data set the test system is SARS-CoV-2. The data set is described as follows: SARS-CoV-2 replication in Calu-3 cells with or without IFNγ, plaque assay. Format: cell-based. As to conditions: 48 hpi. On the procedure: Cells were infected with recombinant MHV-JHM or SARS-CoV-2 at a multiplicity of infection (MOI) of 0.1 PFU/cell with a 45–60 min adsorption phase, unless otherwise stated. Progeny cell-associated and cell-free virus was collected at indicated timepoints and viral titers were determined by plaque assay on Hela-MHVR (MHV) or Vero E6 (SARS-CoV-2) cells. All statistical analysis for viral infections was performed using GraphPad Prism software with an ordinary one-way ANOVA with a Dunnet’s test to correct for multiple comparisons to assess differences between treated and untreated samples. Graphs are expressed as means ± standard errors of the means. The n value represents the number of biological replicates for each group. Significant p values were denoted with asterisks. *, p≤0.05; **, p≤0.01, ***, p≤0.001, ****, p≤0.0001.

The target of data set [4] is macrodomains from SARS-CoV (Severe acute respiratory syndrome coronavirus, UniProt P0C6X7).
A further data set concerns the target PARP9 MD1 (Homo sapiens, UniProt Q8IXQ6). Briefly: FRET profiling / potency against PARP9 MD1. Format: binding.
A further data set concerns viral macrodomains. The data set is described as follows: FRET profiling against panel of other viral macrodomains. The class given is binding. As to conditions: up to 100 μM.
[5] abbreviates: FRET assay, SARS-CoV-2 Mac1, text and Fig. 1C.
[6] abbreviates: Table 2, synthesized analogs, n=3, read-out: IC50 (pIC50 ± SEM): IC50 (converted).
Setting [7] is: IC50 (pIC50 ± SEM): IC50, Table 2, synthesized analogs, n=3.
Setting [8] is: FRET assay, SARS-CoV-2 Mac1, text and Fig. 1C, read-out: IC50.
Setting [9] is: IC50, FRET assay, SARS-CoV-2 Mac1, text and Fig. 1C.
Where [10] appears, read: Table 1, commercial analogs, n=3, given with negative sign, read-out: IC50 (pIC50 ± SEM): pIC50 ± SEM (converted).

macrodomains from MERS-CoV, sequence (K9N7C7 1110-1276 limits assumed): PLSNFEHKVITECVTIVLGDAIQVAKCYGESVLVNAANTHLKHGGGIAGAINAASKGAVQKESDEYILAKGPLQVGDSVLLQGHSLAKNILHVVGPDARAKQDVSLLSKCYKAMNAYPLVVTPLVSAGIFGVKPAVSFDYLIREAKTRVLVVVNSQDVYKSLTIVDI

Turning to `O=C(O)c1c(NC(=O)C2CCCCC2C(=O)O)sc2c1CCCCC2` (stereo not shown) [Compound 24, 2-[(2-carboxycyclohexane-1-carbonyl)amino]-5,6,7,8-tetrahydro-4H-cyclohepta[b]thiophene-3-carboxylic acid], the IC50 entry was “without inhibitory activity” at SARS-CoV-2 Mac1 [1] (setting [5]) and greater than 100 µM at SARS-CoV-2 Mac1 [1] (setting [6]).
Turning to `COC(=O)c1c(NC(=O)C2C3CCC(CC3)C2C(=O)O)sc2c1CCCC2` (stereo not shown) [Compound 12], the IC50 entry is “completely abolished the inhibitory effect” at SARS-CoV-2 Mac1 [1] (setting [5]) and greater than 100 µM at SARS-CoV-2 Mac1 [1] (Table 1, commercial analogs, n=3, read-out: IC50 (pIC50 ± SEM): IC50 (converted)).
For the molecule `COC(=O)c1c(NC(=O)[C@@H]2CCCC[C@H]2C(=O)O)sc2c1CCCCC2` [Compound 26, (1R,2R)-2-{[3-(methoxycarbonyl)-4H,5H,6H,7H,8H-cyclohepta[b]thiophen-2-yl]carbamoyl}cyclohexane-1-carboxylic acid], the half-inhibitory concentration (IC50) against SARS-CoV-2 Mac1 [1] (setting [7]) was 2.7 µM; against SARS-CoV-2 Mac1 [1] (IC50 (pIC50 ± SEM): pIC50 ± SEM, Table 2, synthesized analogs, n=3, given with negative sign), 2.75 µM.
On to `COC(=O)c1c(NC(=O)CCC(=O)O)sc2c1CCCCC2` [Compound 2], for which, at SARS-CoV-2 Mac1 [1] (setting [8]), the IC50 worked out at 48 µM. Also, the “drop in potency relative to 1” value on SARS-CoV-2 Mac1 [1] came to 3.5 fold. In addition, the shift in melting temperature (ΔTm) on SARS-CoV-2 Mac1 [2] worked out at 0.3 ± 0.12 °C.
For `COC(=O)c1c(NC(=O)c2ccccc2C(=O)O)sc2c1CCCC2` [Compound 3, 2-{[3-(methoxycarbonyl)-4,5,6,7-tetrahydro-1-benzothiophen-2-yl]carbamoyl}benzoic acid] the same measures were 110 µM, 7 fold and 0.7 ± 0.24 °C.
In the case of `COC(=O)c1c(NC(=O)[C@H]2CCCC[C@@H]2C(=O)O)sc2c1CCCCC2` [Compound 25, (1S,2S)-2-{[3-(methoxycarbonyl)-4H,5H,6H,7H,8H-cyclohepta[b]thiophen-2-yl]carbamoyl}cyclohexane-1-carboxylic acid], on SARS-CoV-2 Mac1 [1] (setting [7]), the IC50 was greater than 100 µM.
With `COC(=O)c1c(NC(=O)C2CCCCC2C(=O)O)sc2c1CCCCC2` (stereo not shown) [Compound 15r, 2-{[3-(methoxycarbonyl)-4H,5H,6H,7H,8H-cyclohepta[b]thiophen-2-yl]carbamoyl}cyclohexane-1-carboxylic acid], the figures for the half-maximal inhibitory concentration (IC50) on SARS-CoV-2 Mac1 [1] (setting [7]) and against SARS-CoV-2 Mac1 [1] (setting [9]) were 6.3 µM and 6.5 µM, respectively.
Turning to `COC(=O)c1c(NC(=O)[C@@H]2CCCC[C@H]2C(=O)OC)sc2c1CCCCCC2` [Compound 28, Methyl 2-[(1R,2R)-2-(methoxycarbonyl)cyclohexaneamido]-4H,5H,6H,7H,8H,9H-cycloocta[b]thiophene-3-carboxylate], the values for the half-maximal inhibitory concentration (IC50) entry against SARS-CoV-2 Mac1 [1] (setting [5]) and on SARS-CoV-2 Mac1 [1] (setting [6]) were “completely inactive” and greater than 100 µM, respectively.
As for `COC(=O)c1c(NC(=O)[C@@H]2CCCC[C@H]2C(=O)O)sc2c1CCCCCC2` [Compound 27, (1R,2R)-2-{[3-(methoxycarbonyl)-4H,5H,6H,7H,8H,9H-cycloocta[b]thiophen-2-yl]carbamoyl}cyclohexane-1-carboxylic acid], at ALC1, the 50% inhibitory concentration (IC50) was 3 µM, the inhibition at 10 µM is no less than 50%, the inhibition at 100 µM was no less than 50% and the inhibition at 1000 µM was 63%. In [3], the IC50 is greater than 100 µM and the inhibition % is 43%. Besides, in the data set with human macrodomains, the “inhibition of human macrodomains” value is “did not show effective inhibition”. Moreover, the “cytotoxicity / viability (MTT)” value with DBT cells was “does not affect the viability; also recorded: did not have any cellular cytotoxicity”. Further, the “cytotoxicity / viability (MTT)” value with L929 cells was “does not affect the viability; also recorded: did not have any cellular cytotoxicity”. For the same molecule, in the data set with Calu-3 cells, the “cytotoxicity / viability (MTT)” value is given as “does not affect the viability; also recorded: did not lead to any cytotoxicity”. In the data set on SARS-CoV-2 (absence of IFNγ), the “antiviral effect on SARS-CoV-2” value is “minimal, if any, antiviral effects”. For the same molecule, in the data set on SARS-CoV-2 (presence of IFNγ (100 U/ml), 25 μM), the “reduction in virus replication” value is reported as 10–15 fold. The molecule also returned an inhibition % in data set [4] of 64%.
Take `COC(=O)c1c(NC(=O)C2CCCCC2C(=O)O)sc2c1CCC2` (stereo not shown) [Compound 16]: the concentration for half-maximal inhibition (IC50) on SARS-CoV-2 Mac1 [1] (setting [10]) is 21.9 µM.
Take `N#Cc1c(NC(=O)C2CC=CCC2C(=O)O)sc2c1CCCCC2` (stereo not shown) [Compound 21, 6-[(3-cyano-5,6,7,8-tetrahydro-4H-cyclohepta[b]thiophen-2-yl)carbamoyl]cyclohex-3-ene-1-carboxylic acid]: the 50% inhibitory concentration (IC50) result was “inactive” at SARS-CoV-2 Mac1 [1] (setting [5]) and greater than 100 µM on SARS-CoV-2 Mac1 [1] (setting [6]).
In the case of `Nc1ncnc2c1ncn2[C@H]1O[C@@H](COP(=O)(O)OP(=O)(O)OC[C@H]2O[C@@H](O)[C@H](O)[C@@H]2O)[C@H](O)[C@@H]1O` [ADP-ribose, reference compound], the ΔTm on SARS-CoV-2 Mac1 [2] was 2.0 ± 0.14 °C.
On to `COC(=O)c1c(NC(=O)C2CC=CCC2C(=O)OC)sc2c1CCCCC2` (stereo not shown) [Compound 23, Methyl 2-[6-(methoxycarbonyl)cyclohex-3-ene-1-amido]-4H,5H,6H,7H,8H-cyclohepta[b]thiophene-3-carboxylate], for which, on SARS-CoV-2 Mac1 [1] (Table 2, synthesized analogs, n=3, given with negative sign, read-out: IC50 (pIC50 ± SEM): pIC50 ± SEM (converted)), the IC50 was 10.7 µM.
For the molecule `COC(=O)c1c(NC(=O)C2CCCCC2C(=O)O)sc2c1CCCC2` (stereo not shown) [Compound 17], the IC50 on SARS-CoV-2 Mac1 [1] (setting [10]) was 18.6 µM.
For the molecule `COC(=O)c1c(NC(=O)C2CC=CCC2C(=O)O)sc2c1CCCCC2` (stereo not shown) [Compound 1, 6-{[3-(methoxycarbonyl)-5,6,7,8-tetrahydro-4H-cyclohepta[b]thiophen-2-yl]carbamoyl}cyclohex-3-ene-1-carboxylic acid], the half-maximal inhibitory concentration (IC50) against SARS-CoV-2 Mac1 [1] (setting [9]) was found to be 14 µM; against PARP9 MD1, 64 µM; at ALC1 (partial inhibition only, read-out: IC50) it was 6.8 µM. For the same molecule, the inhibition at 100 µM against PARP9 MD1 (100 μM) was no less than 70%; against ALC1, no less than 50%. The inhibition at 1000 µM on ALC1 was 58%. Also, in the data set on viral macrodomains, the “inhibition of other tested viral macrodomains” value is listed as “did not show effective inhibition”. Besides, the “inhibition of human macrodomains” value in the data set on human macrodomains (10 μM and 100 μM) is listed as “selective towards Mac1 over all human macrodomains”.
`CC(=O)c1c(NC(=O)C2CC=CCC2C(=O)O)sc2c1CCCCC2` (stereo not shown) [Compound 22, 6-[(3-acetyl-5,6,7,8-tetrahydro-4H-cyclohepta[b]thiophen-2-yl)carbamoyl]cyclohex-3-ene-1-carboxylic acid]: the 50% inhibitory concentration (IC50) result against SARS-CoV-2 Mac1 [1] (setting [5]) was “inactive”; on SARS-CoV-2 Mac1 [1] (setting [6]) it was greater than 100 µM.
